{"source": "patent US4758580A", "about": "“Inhibiting growth of tumors with certain substituted phenoxy dimethyl alkanoic acids, esters or salts” (Yamanouchi Pharmaceutical Co., Ltd., priority 1985, dated 1988)", "key": {"Ehrlich solid tumor": {"test_system": "Ehrlich solid tumor", "experiment": "Anti-tumor test against Ehrlich solid tumor", "type": "in vivo, ddY/SLC mice", "experimental": "Ehrlich tumor cells, 2×10^6, on Day 7 after intraperitoneal transplantation to ddY/SLC mice were subcutaneously transplanted in the left abdomen of ddY/SLC mice (5 week age, male), 10 each grouped into one. The active component was intraperitoneally or orally administered in a definite dose 24 hours after the transplantation, according to the schedule shown in Table 1 (A), (B) or (C). An effect of inhibiting growth of tumor was compared, by measuring the long diameter and short diameter of the tumor on 14, 20 and 21 Days after the transplantation, calculating the tumor size (mm^2) and determining a tumor growth inhibition rate of the group administered with the active component to the control group according to the following equation:\nGrowth inhibition rate (%)=(C-T)/C×100\nT: means tumor size (mm^2) in the active component-administered group\nC: mean tumor size (mm^2) in the control group"}, "melanoma BL-6": {"test_system": "melanoma BL-6", "experiment": "Inhibition of experimental metastasis (to the lung) of melanoma BL-6 in mice", "type": "in vivo, male BDF1 /SLC mice", "conditions": "22th day", "experimental": "(b) Inhibition of experimental metastasis (to the lung) of melanoma BL-6 in mice\nBL-6 cancer cells, 5×10^4, were inoculated into the tail veins of male BDF1 /SLC mice (6 week age) of 6 mice each being grouped in one (13 mice for the control group). The test compounds were administered orally in a definite dose 24 hours after the inoculation. In order to see metastasis-inhibitory effect, on 22th day after the inoculation, the mice were anatomised to observe the metastasis to the lungs. The degree of metastasis was evaluated by the number of pulmonary nodules. [formula] T: Median number of pulmonary nodules of the administered group C: Median number of pulmonary nodules of the control group"}, "MM-46 solid tumor": {"test_system": "MM-46 solid tumor", "experiment": "Test against mouse mammalian MM-46 solid tumor", "type": "in vivo, C3 H/He/SLC mice", "conditions": "1-9 Days", "experimental": "(§1) MM-46 Tumor cells, 1×10^6, on Day 7 after intraperitoneal transplantation to C3 H/He/SLC mice were subcutaneously transplanted to the left abdomen of C3 H/He/SLC mice (5 week age, male) of 8 mice each being grouped in one (21 mice for the control group). The active component was orally administered in a definite dose 24 hours after the transplantation according to the schedule shown in Table 2. An effect of tumor growth inhibition was compared by measuring the long diameter and short diameter of the tumor on Days 14 and 21 after the transplantation, calculating the tumor size (mm^2) and determining a tumor growth inhibition rate of the active component-administered group to the control group."}, "Meth A solid tumor": {"test_system": "Meth A solid tumor", "experiment": "Anti-tumor test against methyl cholanthrene-induced Meth A solid tumor", "type": "in vivo, Balb/C/SLC mice", "conditions": "1-8 Days", "experimental": "as §1, with “Meth A tumor” for “MM-46 Tumor”, “1.5×10^6,” for “1×10^6,”, “Balb/C/SLC” for “C3 H/He/SLC”, “(16” for “(21”, “3.” for “2.”, “15” for “14”"}, "[1]": {"conditions": "Day 14, 25 mg/kg i.p., Days 1, 2, 3, 5, 6, 7 & 9"}, "[2]": {"conditions": "Day 14, 50 mg/kg i.p., Days 1, 2, 3, 5, 6, 7 & 9"}, "[3]": {"conditions": "Day 14, 100 mg/kg i.p., Days 1, 2, 3, 5, 6, 7 & 9"}, "[4]": {"conditions": "Day 21, 25 mg/kg i.p., Days 1, 2, 3, 5, 6, 7 & 9"}, "[5]": {"conditions": "Day 21, 50 mg/kg i.p., Days 1, 2, 3, 5, 6, 7 & 9"}, "[6]": {"conditions": "Day 21, 100 mg/kg i.p., Days 1, 2, 3, 5, 6, 7 & 9"}, "[7]": {"conditions": "Day 14, 50 mg/kg i.p., Days 1, 2, 3, 4, 6, 7, 8, 9"}, "[8]": {"conditions": "Day 14, 100 mg/kg i.p., Days 1, 2, 3, 4, 6, 7, 8, 9"}, "[9]": {"conditions": "Day 21, 50 mg/kg i.p., Days 1, 2, 3, 4, 6, 7, 8, 9"}, "[10]": {"conditions": "Day 21, 100 mg/kg i.p., Days 1, 2, 3, 4, 6, 7, 8, 9"}, "[11]": {"conditions": "50 mg/kg oral, 1, 2, 3, 5, 6, 7, 8, 9 and 10 days"}, "[12]": {"conditions": "100 mg/kg oral, 1, 2, 3, 5, 6, 7, 8, 9 and 10 days"}, "[13]": {"conditions": "Day 14, 1.0 mg/kg i.p., Days 1, 2, 3, 5 & 6"}, "[14]": {"conditions": "Day 21, 1.0 mg/kg i.p., Days 1, 2, 3, 5 & 6"}}, "data": [{"compound": "CCOC(=O)C(C)(C)CCCCCOc1ccc(OCCCCCn2ccnc2)cc1", "note": "[Compound C]", "values": [{"measurement": "Growth Inhibition Rate", "setting": "Ehrlich solid tumor; [1]", "result": 18.4, "unit": "%"}, {"measurement": "Size of Tumor", "setting": "Ehrlich solid tumor; [1]", "result": "191.1 ± 88.8", "unit": "mm^2"}, {"measurement": "Growth Inhibition Rate", "setting": "Ehrlich solid tumor; [2]", "result": 42.4, "unit": "%"}, {"measurement": "Size of Tumor", "setting": "Ehrlich solid tumor; [2]", "result": "135.0 ± 66.9", "unit": "mm^2"}, {"measurement": "Growth Inhibition Rate", "setting": "Ehrlich solid tumor; [3]", "result": 54.2, "unit": "%"}, {"measurement": "Size of Tumor", "setting": "Ehrlich solid tumor; [3]", "result": "107.3 ± 46.7", "unit": "mm^2"}, {"measurement": "Growth Inhibition Rate", "setting": "Ehrlich solid tumor; [4]", "result": 31.9, "unit": "%"}, {"measurement": "Size of Tumor", "setting": "Ehrlich solid tumor; [4]", "result": "363.1 ± 188.8", "unit": "mm^2"}, {"measurement": "Growth Inhibition Rate", "setting": "Ehrlich solid tumor; [5]", "result": 61.0, "unit": "%"}, {"measurement": "Size of Tumor", "setting": "Ehrlich solid tumor; [5]", "result": "207.9 ± 139.7", "unit": "mm^2"}, {"measurement": "Growth Inhibition Rate", "setting": "Ehrlich solid tumor; [6]", "result": 4.2, "unit": "%"}, {"measurement": "Size of Tumor", "setting": "Ehrlich solid tumor; [6]", "result": "190.7 ± 69.1", "unit": "mm^2"}]}, {"compound": "COC(=O)C(C)(C)CCCOc1ccc(OCCCOc2cccnc2)cc1", "note": "[Compound I, methyl 2,2-dimethyl-5-[p-[3-(3-pyridyloxy)propoxy]phenoxy]pentanoate]", "values": [{"measurement": "Growth Inhibition Rate", "setting": "Ehrlich solid tumor; [1]", "result": 29.6, "unit": "%"}, {"measurement": "Size of Tumor", "setting": "Ehrlich solid tumor; [1]", "result": "164.9 ± 96.2", "unit": "mm^2"}, {"measurement": "Growth Inhibition Rate", "setting": "Ehrlich solid tumor; [2]", "result": 26.2, "unit": "%"}, {"measurement": "Size of Tumor", "setting": "Ehrlich solid tumor; [2]", "result": "172.8 ± 82.9", "unit": "mm^2"}, {"measurement": "Growth Inhibition Rate", "setting": "Ehrlich solid tumor; [3]", "result": 36.5, "unit": "%"}, {"measurement": "Size of Tumor", "setting": "Ehrlich solid tumor; [3]", "result": "148.7 ± 66.8", "unit": "mm^2"}, {"measurement": "Growth Inhibition Rate", "setting": "Ehrlich solid tumor; [4]", "result": 36.9, "unit": "%"}, {"measurement": "Size of Tumor", "setting": "Ehrlich solid tumor; [4]", "result": "336.6 ± 160.0", "unit": "mm^2"}, {"measurement": "Growth Inhibition Rate", "setting": "Ehrlich solid tumor; [5]", "result": 30.7, "unit": "%"}, {"measurement": "Size of Tumor", "setting": "Ehrlich solid tumor; [5]", "result": "369.1 ± 203.5", "unit": "mm^2"}, {"measurement": "Growth Inhibition Rate", "setting": "Ehrlich solid tumor; [6]", "result": 45.6, "unit": "%"}, {"measurement": "Size of Tumor", "setting": "Ehrlich solid tumor; [6]", "result": "290.2 ± 115.5", "unit": "mm^2"}]}, {"compound": "CCOC(=O)C(C)(C)CCCCOc1ccc(OCCCCCOc2ccccn2)cc1", "note": "[Compound J, ethyl 6-[p-[5-(2-pyridyloxy)pentyloxy)phenoxy]-2,2-dimethylhexanoate]", "values": [{"measurement": "Growth Inhibition Rate", "setting": "Ehrlich solid tumor; [7]", "result": 20.9, "unit": "%"}, {"measurement": "Size of Tumor", "setting": "Ehrlich solid tumor; [7]", "result": "201.7 ± 48.2", "unit": "mm^2"}, {"measurement": "Growth Inhibition Rate", "setting": "Ehrlich solid tumor; [8]", "result": 34.7, "unit": "%"}, {"measurement": "Size of Tumor", "setting": "Ehrlich solid tumor; [8]", "result": "166.5 ± 65.3", "unit": "mm^2"}, {"measurement": "Growth Inhibition Rate", "setting": "Ehrlich solid tumor; [9]", "result": 19.2, "unit": "%"}, {"measurement": "Size of Tumor", "setting": "Ehrlich solid tumor; [9]", "result": "344.7 ± 108.4", "unit": "mm^2"}, {"measurement": "Growth Inhibition Rate", "setting": "Ehrlich solid tumor; [10]", "result": 38.2, "unit": "%"}, {"measurement": "Size of Tumor", "setting": "Ehrlich solid tumor; [10]", "result": "263.5 ± 97.1", "unit": "mm^2"}]}, {"compound": "O=c1[nH]c(=O)n(C2CCCO2)cc1F", "note": "(stereo not shown) [Futoraful, reference compound]", "values": [{"measurement": "Pulmonary metastasis-inhibition rate", "setting": "melanoma BL-6; [11]", "result": 35.7, "unit": "%"}, {"measurement": "The number of pulmonary nodules, median", "setting": "melanoma BL-6; [11]", "result": 13.5}, {"measurement": "The number of pulmonary nodules, range", "setting": "melanoma BL-6; [11]", "result": "1-49"}, {"measurement": "Pulmonary metastasis-inhibition rate", "setting": "melanoma BL-6; [12]", "result": 69.0, "unit": "%"}, {"measurement": "The number of pulmonary nodules, median", "setting": "melanoma BL-6; [12]", "result": 6.5}, {"measurement": "The number of pulmonary nodules, range", "setting": "melanoma BL-6; [12]", "result": "1-16"}]}, {"compound": "CO[C@@]12[C@H](COC(N)=O)C3=C(C(=O)C(C)=C(N)C3=O)N1C[C@@H]1N[C@@H]12", "note": "[Mitomycin, reference compound]", "values": [{"measurement": "Growth Inhibition Rate", "setting": "Ehrlich solid tumor; [13]", "result": 67.7, "unit": "%"}, {"measurement": "Size of Tumor", "setting": "Ehrlich solid tumor; [13]", "result": "75.6 ± 31.5", "unit": "mm^2"}, {"measurement": "Growth Inhibition Rate", "setting": "Ehrlich solid tumor; [14]", "result": 80.0, "unit": "%"}, {"measurement": "Size of Tumor", "setting": "Ehrlich solid tumor; [14]", "result": "106.8 ± 62.2", "unit": "mm^2"}]}, {"compound": "O=c1[nH]c(=O)n(C2CCCO2)cc1F", "note": "(stereo not shown) [Tetrahydrofuryl-5-fluorouracil, reference compound]", "values": [{"measurement": "Growth Inhibition Rate", "setting": "MM-46 solid tumor; Day 14, 50 mg/kg p.o.", "result": 14.2, "unit": "%"}, {"measurement": "Size of Tumor", "setting": "MM-46 solid tumor; Day 14, 50 mg/kg p.o.", "result": "216.0 ± 55.1", "unit": "mm^2"}, {"measurement": "Growth Inhibition Rate", "setting": "MM-46 solid tumor; Day 14, 100 mg/kg p.o.", "result": 14.7, "unit": "%"}, {"measurement": "Size of Tumor", "setting": "MM-46 solid tumor; Day 14, 100 mg/kg p.o.", "result": "214.8 ± 55.6", "unit": "mm^2"}, {"measurement": "Growth Inhibition Rate", "setting": "MM-46 solid tumor; Day 21, 50 mg/kg p.o.", "result": 26.9, "unit": "%"}, {"measurement": "Size of Tumor", "setting": "MM-46 solid tumor; Day 21, 50 mg/kg p.o.", "result": "247.0 ± 101.8", "unit": "mm^2"}, {"measurement": "Growth Inhibition Rate", "setting": "MM-46 solid tumor; Day 21, 100 mg/kg p.o.", "result": 26.0, "unit": "%"}, {"measurement": "Size of Tumor", "setting": "MM-46 solid tumor; Day 21, 100 mg/kg p.o.", "result": "250.1 ± 92.9", "unit": "mm^2"}, {"measurement": "Growth Inhibition Rate", "setting": "Meth A solid tumor; Day 15, 50 mg/kg p.o.", "result": 45.1, "unit": "%"}, {"measurement": "Size of Tumor", "setting": "Meth A solid tumor; Day 15, 50 mg/kg p.o.", "result": "123.4 ± 69.9", "unit": "mm^2"}, {"measurement": "Growth Inhibition Rate", "setting": "Meth A solid tumor; Day 15, 100 mg/kg p.o.", "result": 58.6, "unit": "%"}, {"measurement": "Size of Tumor", "setting": "Meth A solid tumor; Day 15, 100 mg/kg p.o.", "result": "93.1 ± 50.3", "unit": "mm^2"}, {"measurement": "Growth Inhibition Rate", "setting": "Meth A solid tumor; Day 21, 50 mg/kg p.o.", "result": 50.7, "unit": "%"}, {"measurement": "Size of Tumor", "setting": "Meth A solid tumor; Day 21, 50 mg/kg p.o.", "result": "235.8 ± 124.4", "unit": "mm^2"}, {"measurement": "Growth Inhibition Rate", "setting": "Meth A solid tumor; Day 21, 100 mg/kg p.o.", "result": 44.7, "unit": "%"}, {"measurement": "Size of Tumor", "setting": "Meth A solid tumor; Day 21, 100 mg/kg p.o.", "result": "264.4 ± 110.6", "unit": "mm^2"}]}]}
